US20260248165A1, “A SWEETENER OR SWEETNESS ENHANCER COMPOSITION” (Analyticon Discovery – Zweigniederlassung der BRAIN Biotech …, priority 2022, published 2026)

Tests used:
[1] = Organoleptic comparison of Compound 1 with Millettiasaponin A; format: in vivo; conditions: both at 200 ppm and 50 ppm in mineral water; 4 panelists
Experimental: Milettiasaponin A was published as sweet taste principle of an extract prepared from Derris eriocarpa (150× sweeter than sucrose) [J. Agric. Food Chem. 2017, 65, 2357-2363]. Milletiasaponin A has an additional hydroxyl group at C-24 compared to compound 1. Both compounds were dissolved in non-carbonated mineral water (“Evian”) in a concentration of 0.2 mg/ml (200 ppm) and 0.05 mg/ml (50 ppm). The sweet taste of both samples was compared by a panel of 4 panelists.

[2] = Organoleptic test of the compounds against sucrose (intrinsic sweetness); format: in vivo; parameters: key: 3: sweeter than the control solution; 2: sweetness comparable with the control solution; 1: less sweet than the control solution but still sweet; 0: no intrinsic sweetness; conditions: 3-4 panelists; for Sweetness 50 ppm: compound 50 ppm in mineral water vs sucrose 20 g/l; for Sweetness 200 ppm: compound 200 ppm in mineral water vs sucrose 20 g/l
Experimental: The isolated pure compounds were dissolved in non-carbonated mineral water (“Evian”) in a concentration of 0.2 mg/ml (200 ppm) and 0.05 mg/ml (50 ppm). The sweet taste of each sample was compared by a panel of 3-4 panelists with a solution of sucrose in a concentration of 20 g/l.

[3] = Organoleptic test in combination with sucrose against sucrose (sucrose enhancement), 2-AFC; format: in vivo; parameters: key: 3: sweeter than the control solution; 2: sweetness comparable with the control solution; 1: less sweet than the control solution but still sweet; 0: no intrinsic sweetness; conditions: 12 to 15 panelists; for Sweet taste enhancement of sucrose, control solution Sucrose 6%: compound 50 ppm in 6% sucrose solution vs 6% sucrose; for Sweet taste enhancement of sucrose, control solution Sucrose 7%: compound 50 ppm in 6% sucrose solution vs 7% sucrose; for Sweet taste enhancement of sucrose, control solution Sucrose 8%: compound 50 ppm in 6% sucrose solution vs 8% sucrose; for Sweet taste enhancement of sucrose, control solution Sucrose 9%: compound 50 ppm in 6% sucrose solution vs 9% sucrose
Experimental: The isolated pure compounds were dissolved in non-carbonated mineral water (“Evian”) in a concentration of 50 ppm (0.05 mg/ml), 25 ppm (0.025 mg/ml), […] (0.0125 mg/ml) and […] (0.00625 mg/ml). The sweet taste of each sample was detected by a panel of 4 panelists to detect the sweetness perception level. The highest concentration below the sweetness perception level was used for the evaluation of the sweet taste enhancement of sucrose.
A solution of the isolated compound in a concentration below the sweetness perception level was dissolved in 6% sucrose solution. The sweet taste of this sample was compared to the sweet taste of a 6% sucrose solution by a panel of 12 to 15 panelists in a two-alternative forced-choice test (2-AFC. E2164-16_Standard Test Method for Directional Difference Test). The panelists were trained to differentiate between the sweetness of a 6%, 7%, 8%, and 9% sucrose solution. The sweetness of the solution of the enhancer in 6% sucrose was compared with sucrose solutions in concentrations of 6%, 7%, 8%, and 9%.

[4] = Organoleptic test in combination with Rebaudioside M against Rebaudioside M (Rebaudioside M enhancement), 2-AFC; format: in vivo; parameters: key: 3: sweeter than the control solution; 2: sweetness comparable with the control solution; 1: less sweet than the control solution but still sweet; 0: no intrinsic sweetness; conditions: 12 to 15 panelists; for Sweet taste enhancement, control solution Reb M 150 ppm: compound in 150 ppm Rebaudioside M solution vs Reb M 150 ppm; for Sweet taste enhancement, control solution Reb M 170 ppm: compound in 150 ppm Rebaudioside M solution vs Reb M 170 ppm; for Sweet taste enhancement, control solution Reb M 190 ppm: compound in 150 ppm Rebaudioside M solution vs Reb M 190 ppm; for Sweet taste enhancement, control solution Reb M 210 ppm: compound in 150 ppm Rebaudioside M solution vs Reb M 210 ppm
Experimental: The isolated pure compounds were dissolved in non-carbonated mineral water (“Evian”) in a concentration of 50 ppm (0.05 mg/ml), 25 ppm (0.025 mg/ml), […] (0.0125 mg/ml) and […]. The sweet taste of each sample was detected by a panel of 3-4 panelists to detect the sweetness perception level. The highest concentration below the sweetness perception level was used for the evaluation of the sweet taste enhancement of Rebaudioside M.
A solution of the isolated compound in a concentration below the sweetness perception level was dissolved in 150 ppm Rebaudioside M solution. […] E2164-16_Standard Test Method for Directional Difference Test). The panelists were trained to differentiate between the sweetness of a 150 ppm, 170 ppm, 190 ppm, and a 210 ppm Rebaudioside M solution.

[5] = J. Agric. Food Chem. 2017, 65, 2357-2363; cited from earlier work
[6] = 5% sucrose in water; concentration of 100 μm; cited from earlier work

SMILES	Sweet taste compared with Milletiasaponin A [1]	Sweetness 50 ppm [2]	Sweetness 200 ppm [2]	Sweet taste enhancement of sucrose, control solution Sucrose 6% [3]	Sweet taste enhancement of sucrose, control solution Sucrose 7% [3]	Sweet taste enhancement of sucrose, control solution Sucrose 8% [3]	Sweet taste enhancement of sucrose, control solution Sucrose 9% [3]	Sweet taste enhancement, control solution Reb M 150 ppm [4]	Sweet taste enhancement, control solution Reb M 170 ppm [4]	Sweet taste enhancement, control solution Reb M 190 ppm [4]	Sweet taste enhancement, control solution Reb M 210 ppm [4]	Sweetness relative to sucrose [5]	Enhancement of the sweetness of sucrose [6]
CC(=O)O[C@@H]1C[C@](C)(C(=O)O)C[C@H]2C3=CCC4[C@@]5(C)CC[C@H](O[C@@H]6O[C@H](C(=O)O)[C@@H](O)[C@H](O)[C@H]6O[C@@H]6O[C@H](CO)[C@H](O)[C@H](O)[C@H]6O[C@@H]6O[C@@H](C)[C@H](O)[C@@H](O)[C@H]6O)C(C)(C)C5CC[C@@]4(C)[C@]3(C)CC[C@@]12C (stereo partly shown) [Compound 1, 24-Desoxy- Millettiasaponin A]	sweeter with less aftertaste than Milletiasaponin A	3	3	3	3	3	3	3	3	2	2		
CC1=C(C(=O)O[C@@H]2O[C@H](CO[C@@H]3OC[C@@H](O)[C@H](O)[C@H]3O)[C@@H](O)[C@H](O)[C@H]2O)C(C)(C)CCC1 [Compound 2, Jasminoside M]		0	0	3	3	3	2	3	3	2	1		
COc1cc([C@H]2c3cc(O)c(OC)cc3C[C@@H](CO[C@@H]3O[C@H](CO)[C@@H](O)[C@H](O)[C@H]3O)[C@@H]2CO)ccc1O [Compound 3, Isolariciresinol 9-glucoside]		0	0	3	3	3	2	3	3	2	1		
CCCCCc1cc2cc(O)cc(Oc3c(O)cc(O)cc3CCCCC)c2c(=O)o1 [Compound 4, Physodone]		0	0	3	3	3	2	3	3	3	1		
CC(=O)O[C@@H]1C[C@](C)(C(=O)O)C[C@H]2C3=CCC4[C@@]5(C)CC[C@H](O[C@@H]6O[C@H](C(=O)O)[C@@H](O)[C@H](O)[C@H]6O[C@@H]6O[C@H](CO)[C@H](O)[C@H](O)[C@H]6O[C@@H]6O[C@@H](C)[C@H](O)[C@@H](O)[C@H]6O)[C@](C)(CO)C5CC[C@@]4(C)[C@]3(C)CC[C@@]12C (stereo partly shown) [Milettiasaponin A]												150 × sweeter than sucrose	
COc1ccc([C@@H]2CC(=O)c3c(O)cc(O)cc3O2)cc1O [hesperetin]													41%
